Data: ChEMBL document CHEMBL1148891, “New syntheses of tetrazolylmethylphenylalanine and O-malonyltyrosine as pTyr mimetics for the design of STAT3 dimerization inhibitors” (Bioorg Med Chem Lett, 2007)
pIC50: −log10 of the molar value. Starred links: 1 amine or outer side, 2 acyl side, 3 side chain; linkers in the order of their positions; H or OH if unused. Non-standard residues stand in square brackets, D forms with d. Residues, ends and D or L forms follow the SMILES beside them. Phe(4-tetrazol-5-yl) = N[C@@H](Cc1ccc(-c2nnn[nH]2)cc1)C(=O)O; X1 = O=C([C@H](Cc1ccc(Cc2nn[nH]n2)cc1)N[*:1])[*:2]

Target: Signal transducer and activator of transcription 3 (Homo sapiens, UniProt P40763)
Experiment: Inhibition of STAT3 dimer DNA binding activity by ELISA after 30 mins

Signal transducer and activator of transcription 3, sequence (P40763 whole entry): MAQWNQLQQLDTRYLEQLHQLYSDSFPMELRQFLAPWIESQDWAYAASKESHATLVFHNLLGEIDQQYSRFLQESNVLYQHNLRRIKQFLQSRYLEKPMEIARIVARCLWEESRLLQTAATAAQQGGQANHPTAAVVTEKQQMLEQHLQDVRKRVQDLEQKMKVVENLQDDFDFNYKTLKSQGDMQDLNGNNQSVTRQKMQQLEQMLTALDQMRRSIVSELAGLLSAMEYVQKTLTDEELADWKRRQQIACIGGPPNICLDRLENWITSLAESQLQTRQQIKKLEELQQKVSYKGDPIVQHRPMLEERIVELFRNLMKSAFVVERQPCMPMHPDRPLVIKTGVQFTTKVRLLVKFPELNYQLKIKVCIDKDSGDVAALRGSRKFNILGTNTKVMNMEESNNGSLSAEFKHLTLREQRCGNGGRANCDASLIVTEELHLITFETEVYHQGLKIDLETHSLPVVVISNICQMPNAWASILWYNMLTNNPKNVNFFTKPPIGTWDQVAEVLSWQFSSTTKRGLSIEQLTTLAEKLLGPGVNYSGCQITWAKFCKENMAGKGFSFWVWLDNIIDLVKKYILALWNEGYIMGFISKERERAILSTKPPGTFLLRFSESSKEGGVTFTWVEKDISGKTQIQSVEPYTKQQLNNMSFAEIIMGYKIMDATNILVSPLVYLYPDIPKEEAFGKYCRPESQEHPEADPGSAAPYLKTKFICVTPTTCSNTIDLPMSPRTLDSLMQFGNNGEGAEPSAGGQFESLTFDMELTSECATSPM

Structure (SMILES) | pIC50
CC(=O)N[C@@H](Cc1ccc(-c2nnn[nH]2)cc1)C(=O)N[C@@H](CC(C)C)C(=O)N1CCC[C@H]1C(=O)N[C@@H](CCC(N)=O)C(=O)N[C@H](C(=O)N[C@H](C(=O)O)C(C)C)[C@@H](C)O (Ac-[Phe(4-tetrazol-5-yl)]LPQTV-OH) | < 6.10
CC(=O)N[C@@H](Cc1ccc(Cc2nn[nH]n2)cc1)C(=O)N[C@@H](CC(C)C)C(=O)N1CCC[C@H]1C(=O)N[C@@H](CCC(N)=O)C(=O)N[C@H](C(=O)N[C@H](C(=O)O)C(C)C)[C@@H](C)O (Ac-[X1]LPQTV-OH) | < 6.00
